{
  "source": "patent US20150157604A1",
  "about": "“PHARMACEUTICAL COMPOSITION FOR THE PROPHYLAXIS AND TREATMENT OF PSYCHOLOGICAL, BEHAVIORAL AND COGNITIVE DISORDERS” (LTD << VALENTA-INTELLEKT >>, priority 2012, published 2015)",
  "key": {"cerebral edema": {"tested_on": "cerebral edema", "settings": "rats; second administration; cited from earlier work"}, "[1]": {"tested_on": "patients with mixed dementia and patients with Alzheimer's disease", "experiment": "Study of pharmacological activity: half-year neurological study (MMSE, visual and aural-speech memory, clock drawing test, Schulte Table)", "type": "in vivo, human", "source_text": "The subjects under the study have been 25 patients with mixed dementia and 12 patients with Alzheimer's disease. The average age of the patients is 70±3 years. Dementia has been diagnosed in accordance with the dementia criteria under ICD-10 [International statistic classification of diseases and problems relating to health. Tenth revision (ICD-10). V.1 (Part 1). Geneva: WHO, 1995; p. 315, 510-1]. Dimentia severity has been assessed according to Clinical Dementia Rating Scale—CDR [Hughes C P, Berg L, Danziger W L et al. A new clinical scale for the staging of dementia. Brit J Psychiatry 1982; 140: 566-72]. In the group of patients with mixed dementia it is 1.2±0.3, and in the group with Alzheimer's disease—1.1±0.36. All the patients have been subdivided into two groups. The first group has received […] of memantine once a day. The second group received capsules according to Example 4. A complex neurological study has been conducted with the patients for half a year, the study included brief evaluation of mental status (MMSE), a test for visual and aural-speech memory under the dementia scale, the clock drawing test as well as the test for attention—Schulte Table. The outcome has been processed with the use of the statistical package for social sciences (SPSS), Version 10.0."}, "[2]": {"settings": "cited from earlier work"}, "[3]": {"tested_on": "dopamine concentration in the forebrain regions", "settings": "cited from earlier work"}},
  "data": [
    {"smiles": "COc1ccc2[nH]cc(CCNC(C)=O)c2c1", "note": "[melatonin, N-acetyl-5-methoxytriptamine]", "values": [
      {"measurement": "reduction of the volume of cerebral edema", "setting": "cerebral edema", "result": 2, "unit": "times"}
    ]},
    {"smiles": "CC12CC3CC(C)(C1)CC(N)(C3)C2", "note": "[memantine, 1-amino-3,5-dimethyladamantan]", "values": [
      {"measurement": "increase of clock drawing test", "setting": "[1]; in 6 months", "result": "0.2±0.1"},
      {"measurement": "increase of total score of the mental status evaluation (MMSE)", "setting": "[1]; in 6 months, patients with mixed dementia or Alzheimer's disease", "result": "1.5±0.3"},
      {"measurement": "lowering of Schulte test", "setting": "[1]; in 6 months, test for attention", "result": "20.5±3.6"},
      {"measurement": "increase of visual memory", "setting": "[1]; in 6 months, test under the dementia scale", "result": "0.5±0.2"},
      {"measurement": "patients with positive therapeutic effect", "setting": "[1]; patients with Alzheimer's disease", "result": 25, "unit": "%"},
      {"measurement": "patients with positive therapeutic effect", "setting": "[1]; patients with mixed dementia", "result": 86, "unit": "%"},
      {"measurement": "side effects", "setting": "[1]; patients, half-year study", "result": "increase in the intracranial pressure was observed"},
      {"measurement": "time to concentration peak in the brain", "setting": "[2]; after a single dosing", "result": "one"},
      {"measurement": "half-life", "setting": "[2]; in vivo", "result": "approximately 100 hours"},
      {"measurement": "dopamine concentration", "setting": "[3]; after a single dosing", "result": "remains unchanged"},
      {"measurement": "rise of dopamine concentration in the forebrain regions", "setting": "[3]; during prolonged administration", "result": "≥ 10", "unit": "times"}
    ]}
  ]
}
